Reference: PMC6669887 (Analytical chemistry, 2019)

System: A2AR
Assay: Affinity MS assay/screen with purified immobilized receptor
Assay type: binding
Details: 480-mix cocktails

CCNC(=O)[C@H]1O[C@@H](n2cnc3c(NCC(c4ccccc4)c4ccccc4)nc(C(=O)NCCNC(=O)NC4CCN(c5ccccn5)CC4)nc32)[C@H](O)[C@@H]1O [UK-432,097]
hit detection/selection in 480-mix screens: detected in all cocktails
